Tests used:
FSHR = molecular target: T1, FSHR (Homo sapiens, UniProt P23945); experiment: EC50 of cyclic AMP production in CHO FSHR cells + EC20 FSH (Assay A); format: cell-based; details: cyclic AMP production in CHO FSHR cells + EC20 FSH (0.265 pM), HTRF
T1 construct: expressed in transfected cells; host or cells: CHO (Cho-FSHR-LUC-1-1-43)
T1 sequence (P23945 18-695): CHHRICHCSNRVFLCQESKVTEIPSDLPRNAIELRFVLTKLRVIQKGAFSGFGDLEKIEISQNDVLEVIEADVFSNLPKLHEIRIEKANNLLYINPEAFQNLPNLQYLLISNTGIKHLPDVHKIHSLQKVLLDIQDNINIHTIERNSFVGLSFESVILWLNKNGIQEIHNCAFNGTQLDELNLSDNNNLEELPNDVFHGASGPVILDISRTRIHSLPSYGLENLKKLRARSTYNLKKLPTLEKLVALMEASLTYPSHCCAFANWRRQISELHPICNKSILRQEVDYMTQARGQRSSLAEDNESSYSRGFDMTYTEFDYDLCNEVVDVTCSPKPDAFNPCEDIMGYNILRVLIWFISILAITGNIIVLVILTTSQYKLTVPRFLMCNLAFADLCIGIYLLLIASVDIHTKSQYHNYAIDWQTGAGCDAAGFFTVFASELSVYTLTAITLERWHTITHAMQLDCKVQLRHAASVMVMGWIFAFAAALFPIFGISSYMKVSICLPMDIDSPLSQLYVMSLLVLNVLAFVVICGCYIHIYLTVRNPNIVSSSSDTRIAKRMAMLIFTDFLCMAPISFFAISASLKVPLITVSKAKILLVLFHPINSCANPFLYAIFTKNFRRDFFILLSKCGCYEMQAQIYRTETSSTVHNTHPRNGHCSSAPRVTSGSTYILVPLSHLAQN
Method: Example 24. EC50 of cyclic AMP production in CHO FSHR cells+EC20 FSH (Assay A)
2500 Cho-FSHR-LUC-1-1-43 cells were plated per well in 5 al of phenol red free DMEM/F12+1% FBS. Cells were plated in 384 well, solid white low volume plates (Greiner 784075) by Multidrop. Cells were assayed by adding 100 al of 2×EC20 FSH/IBMX in DMEM/F12+0.1% BSA) by Multidrop to 2 al of test compound stamped in 384 well plates (compounds are diluted 1:50). The final FSH concentration was 0.265 pM, and the final IBMX concentration was 200 μM. The compound plate map was as follows: Column 1: 2 μl of DMSO; Column 2: 2 μl of DMSO; Columns 3-12 and 13-24: 2 μl of test compound, diluted 1:4 in 100% DMSO, or 2 μl of FSH, diluted 1:4 in DMEM/F12+0.1% BSA. The starting concentration for FSH was 50 nM (final concentration was 0.5 nM). Furthermore, Column 23 contained 2 μl of EC100 FSH reference (100×) (diluted in DMEM/F12+0.1% BSA) at a final concentration of 0.5 nM, and Column 24 contained 2 μl of 1 mM AS707664/2 reference compound 2. 5 μl of compound+EC20 FSH mixture were transferred to cell plates (1:2 dilution into 5 μl of cell media) The plates were incubated at 37° C. for 1 h. 10 μl of mixed HTRF (CisBio #62AM4PEC) reagents were added per well and incubated at room temperature for 1 h. The plates were read on Envision using the cAMP HTRF—low volume 384 well protocol. The readout was the calculated fluorescence ratio (665 nm/620 nm). Values given in percent (%) indicate the percental effect (response) at a certain concentration of agonist relative to the maximum response of the FSH standard.

[1] = molecular target: T2, follicle-stimulating hormone (FSH) receptor (Rattus norvegicus, UniProt P20395); experiment: Rat granulosa EC50 FSH (Assay B); format: cell-based
T2 construct: endogenous in cells; host or cells: rat granulosa cells
T2 sequence (P20395 18-692): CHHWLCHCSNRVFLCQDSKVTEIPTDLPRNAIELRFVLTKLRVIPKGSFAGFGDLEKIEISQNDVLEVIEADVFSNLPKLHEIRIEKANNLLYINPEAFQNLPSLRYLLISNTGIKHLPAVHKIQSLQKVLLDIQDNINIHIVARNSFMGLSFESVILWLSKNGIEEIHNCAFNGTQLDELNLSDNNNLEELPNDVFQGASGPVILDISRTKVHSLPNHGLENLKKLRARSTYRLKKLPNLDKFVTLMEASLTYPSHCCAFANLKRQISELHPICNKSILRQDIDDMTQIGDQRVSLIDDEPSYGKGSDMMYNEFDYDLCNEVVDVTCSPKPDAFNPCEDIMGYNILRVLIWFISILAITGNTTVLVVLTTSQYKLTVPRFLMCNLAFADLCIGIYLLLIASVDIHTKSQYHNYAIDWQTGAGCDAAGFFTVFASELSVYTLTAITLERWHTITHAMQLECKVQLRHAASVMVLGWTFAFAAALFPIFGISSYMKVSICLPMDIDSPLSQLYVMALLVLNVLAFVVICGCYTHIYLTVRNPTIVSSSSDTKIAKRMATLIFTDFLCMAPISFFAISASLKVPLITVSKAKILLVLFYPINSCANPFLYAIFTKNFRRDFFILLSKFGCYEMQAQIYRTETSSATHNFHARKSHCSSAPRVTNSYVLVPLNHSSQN
Method: Example 25. Rat granulosa EC50 FSH (Assay B)
The assay was performed pursuant to the teaching of Yanofsky et al. (2006) Allosteric activation of the follicle-stimulating hormone (FSH) receptor by selective, nonpeptide agonists (JBC 281(19): 13226-13233, which is incorporated by reference in the disclosure of the invention).

EC50 (FSHR) | EC50 [1] | SMILES
< 0.01 µM | 0.101 to 0.5 µM | COc1cc2c(cc1-c1cnn(CC(=O)N(C)C)c1)-c1c(c(C(=O)N(C)C(C)(C)C)nn1-c1cc(Cl)cc(Cl)c1)CO2 [Compound 90, N-tert-butyl-1-(3,5-dichlorophenyl)-8-(1-(2-(dimethylamino)-2-oxoethyl)-1H-pyrazol-4-yl)-7-methoxy-N-methyl-1,4-dihydrochromeno[4,3-c]pyrazole-3-carboxamide]
< 0.01 µM | 0.01 to 0.1 µM | COc1cc2c(cc1-c1cc(C(N)=O)ccn1)-c1c(c(C(=O)N(C)C(C)(C)C#N)nn1-c1cc(Cl)cc(Cl)c1)CO2 [Compound 120, 8-(4-carbamoylpyridin-2-yl)-N-(2-cyanopropan-2-yl)-1-(3,5-dichlorophenyl)-7-methoxy-N-methyl-1,4-dihydrochromeno[4,3-c]pyrazole-3-carboxamide]
< 0.01 µM | 0.01 to 0.1 µM | COc1cc2c(cc1-c1cccnc1F)-c1c(c(C(=O)N(C)C(C)(C)C)nn1-c1cc(Cl)cc(Cl)c1)CO2 [Compound 3, N-tert-butyl-1-(3,5-dichlorophenyl)-8-(2-fluoropyridin-3-yl)-7-methoxy-N-methyl-1,4-dihydrochromeno[4,3-c]pyrazole-3-carboxamide]
< 0.01 µM | 0.01 to 0.1 µM | COc1cc2c(cc1-c1cnn(CC(N)=O)c1)-c1c(c(C(=O)N(C)C(C)(C)C)nn1-c1cc(Cl)cc(Cl)c1)CO2 [Compound 2, 8-(1-(2-amino-2-oxoethyl)-1H-pyrazol-4-yl)-N-tert-butyl-1-(3,5-dichlorophenyl)-7-methoxy-N-methyl-1,4-dihydrochromeno[4,3-c]pyrazole-3-carboxamide]
< 0.01 µM | 0.01 to 0.1 µM | COc1cc2c(cc1-c1cccc(C(N)=O)c1)-c1c(c(C(=O)N(C)C(C)(C)C)nn1-c1cc(Cl)cc(Cl)c1)CO2 [Compound 172]
0.01 to 0.1 µM | 0.101 to 0.5 µM | COc1cc2c(cc1-c1cnn(CC(O)CO)c1)-c1c(c(C(=O)N(C)C(C)(C)C)nn1-c1cc(Cl)cc(Cl)c1)CO2 (single isomer, unassigned) [Compound 191, N-tert-butyl-1-(3,5-dichlorophenyl)-8-(1-(2,3-dihydroxypropyl)-1H-pyrazol-4-yl)-7-methoxy-N-methyl-1,4-dihydrochromeno[4,3-c]pyrazole-3-carboxamide]

More lines, now with the values behind:

SMILES | EC50 (FSHR) | EC50 [1]
COc1cc2c(cc1-c1cncc(C(N)=O)c1)-c1c(c(C(=O)N(C)C(C)(C)C(N)=O)nn1-c1cc(F)cc(F)c1)CO2 [Compound 104, N-(1-amino-2-methyl-1-oxopropan-2-yl)-8-(5-carbamoylpyridin-3-yl)-1-(3,5-difluorophenyl)-7-methoxy-N-methyl-1,4-dihydrochromeno[4,3-c]pyrazole-3-carboxamide] | 0.01 to 0.1 µM | > 0.5 µM
COc1cc(OC)cc(-n2nc(C(=O)N(C)C(C)(C)C)c3c2-c2cc(-c4ccccn4)c(OC)cc2OC3)c1 [Compound 46, N-tert-butyl-1-(3,5-dimethoxyphenyl)-7-methoxy-N-methyl-8-(pyridin-2-yl)-1,4-dihydrochromeno[4,3-c]pyrazole-3-carboxamide] | 0.01 to 0.1 µM | 0.101 to 0.5 µM
COc1cc(Cl)cc(-n2nc(C(=O)N3CCOCC3(C)C)c3c2-c2cc(-c4cnn(CC(=O)O)c4)c(OC)cc2OC3)c1 [Compound 86, 2-(4-(1-(3-chloro-5-methoxyphenyl)-3-(3,3-dimethylmorpholine-4-carbonyl)-7-methoxy-1,4-dihydrochromeno[4,3-c]pyrazol-8-yl)-1H-pyrazol-1-yl)acetic acid] | < 0.01 µM | 0.101 to 0.5 µM
COc1cc(OC)cc(-n2nc(C(=O)N(C)C(C)(C)C)c3c2-c2cc(-c4cc[nH]c4)c(OC)cc2OC3)c1 [Compound 38] | 0.01 to 0.1 µM | 0.101 to 0.5 µM
COc1cc(Cl)cc(-n2nc(C(=O)N(C)C(C)(C)C)c3c2-c2cc(-c4cncc(C(N)=O)c4)c(OC)cc2OC3)c1 [Compound 156] | < 0.01 µM | 0.01 to 0.1 µM
COc1cc2c(cc1-c1cc(C(N)=O)ncc1F)-c1c(c(C(=O)N3CCOCC3(C)C)nn1-c1cc(F)cc(F)c1)CO2 [Compound 72, 4-(1-(3,5-difluorophenyl)-3-(3,3-dimethylmorpholine-4-carbonyl)-7-methoxy-1,4-dihydrochromeno[4,3-c]pyrazol-8-yl)-5-fluoropicolinamide] | < 0.01 µM | 0.01 to 0.1 µM
COc1cc2c(cc1-c1cnn(CC(=O)O)c1)-c1c(c(C(=O)N3CCOCC3(C)C)nn1-c1cc(F)cc(F)c1)CO2 [Compound 88, 2-(4-(1-(3,5-difluorophenyl)-3-(3,3-dimethylmorpholine-4-carbonyl)-7-methoxy-1,4-dihydrochromeno[4,3-c]pyrazol-8-yl)-1H-pyrazol-1-yl)acetic acid] | 0.01 to 0.1 µM | 0.101 to 0.5 µM
COc1cc2c(cc1-c1ccn(C)n1)-c1c(c(C(=O)N(CCO)C(C)(C)C)nn1-c1ccsc1)CO2 [Compound 121, N-tert-butyl-N-(2-hydroxyethyl)-7-methoxy-8-(1-methyl-1H-pyrazol-3-yl)-1-(thiophen-3-yl)-1,4-dihydrochromeno[4,3-c]pyrazole-3-carboxamide] | 0.01 to 0.1 µM | > 0.5 µM
COc1cc2c(cc1-c1cnn(CC(N)=O)c1)-c1c(c(C(=O)N3CCOCC3(C)C)nn1-c1cc(F)cc(F)c1)CO2 [Compound 99, 2-(4-(1-(3,5-difluorophenyl)-3-(3,3-dimethylmorpholine-4-carbonyl)-7-methoxy-1,4-dihydrochromeno[4,3-c]pyrazol-8-yl)-1H-pyrazol-1-yl)acetamide] | < 0.01 µM | 0.01 to 0.1 µM
COc1cc2c(cc1-c1cnn(CC(=O)O)c1)-c1c(c(C(=O)N(C)C(C)(C)C)nn1-c1cc(F)cc(F)c1)CO2 [Compound 87, 2-(4-(3-(tert-butyl(methyl)carbamoyl)-1-(3,5-difluorophenyl)-7-methoxy-1,4-dihydrochromeno[4,3-c]pyrazol-8-yl)-1H-pyrazol-1-yl)acetic acid] | 0.01 to 0.1 µM | 0.101 to 0.5 µM
COc1cc2c(cc1-c1cc(C(N)=O)c[n+]([O-])c1)-c1c(c(C(=O)N3CCOCC3(C)C)nn1-c1cc(F)cc(F)c1)CO2 [Compound 176] | < 0.01 µM | 0.01 to 0.1 µM
COc1cc2c(cc1-c1ccccn1)-c1c(c(C(=O)N3CCC(O)CC3(C)C)nn1-c1cc(Cl)cc(Cl)c1)CO2 (stereo not drawn) [Compound 10, (1-(3,5-dichlorophenyl)-7-methoxy-8-(pyridin-2-yl)-1,4-dihydrochromeno[4,3-c]pyrazol-3-yl)(4-hydroxy-2,2-dimethylpiperidin-1-yl)methanone] | < 0.01 µM | 0.01 to 0.1 µM

From patent publication US10941152B2, “Pyrazole compounds as modulators of FSHR and uses thereof” (TOCOPHERX, INC., priority 2014, dated 2021)
